From ChEMBL document CHEMBL5550185, “Targeting hTERT Promoter G-Quadruplex DNA Structures with Small-Molecule Ligand to Downregulate hTERT Expression for Triple-Negative Breast Cancer Therapy” (J Med Chem, 2024)
Activity calls are given as the source filed them. The calls are words filed in the database; no cut-off is given here.

Assays:
[1] = Selectivity ratio of binding affinity to human TERT G4 DNA to binding affinity to Bcl-2 G4 DNA (unknown origin)
[2] = Cytotoxicity against human HK-2 cells assessed as inhibition of cell growth incubated for 48 hrs by MTT assay; type: toxicity, cell-based
DNA [3] = assay: Binding affinity to DNA in telomerase-positive live human MDA-MB-231 cells assessed as reduction in fluorescence at 5 uM preincubated for 10 mins followed by washout and DNase I addition measured after 2 hrs by Hoechst 33342 staining based confocal microscopic analysis; type: cell-based
[4] = Upregulation of SGK1 gene expression in human MDA-MB-231 cells assessed as fold change at 1 uM measured after 48 hrs by RNA-seq analysis relative to control; type: functional
[5] = Toxicity in female Balb/c nude mouse xenografted with human MDA-MB-231 cells assessed as signs of ulcer at 2 to 5 mg/kg, iv administered via tail vein every 2 days for 16 days; type: organism-based; settings: in vivo, 384 h, dose 2-5 mg/kg, time 16 day
MDA-MB-231 [6] = assay: Inhibition of hTERT expression in human MDA-MB-231 cells assessed as reduction in pink foci in nucleus at 0.5 uM incubated for 48 hrs in presence of TBHP at 200 uM by immunofluorescence analysis; type: functional, cell-based
MDA-MB-231 [7] = assay: Antitumor activity against human MDA-MB-231 cells xenografted in female Balb/c mouse assessed as reduction in tumor weight at 2 mg/kg, iv administered via tail vein every 2 days for 16 days relative to control; type: functional; design: scale not given: the % may be the effect or the level left; settings: time 16 day
MDA-MB-231 [8] = assay: Downregulation of ND5 gene expression in human MDA-MB-231 cells at 1 uM measured after 48 hrs by RNA-seq analysis; type: functional, cell-based
MDA-MB-231 [9] = assay: Cytotoxicity against human MDA-MB-231 cells assessed as inhibition of cell growth incubated for 48 hrs in presence of TBHP by MTT assay; type: functional, cell-based; settings: MDA-MB-231, 48 h
Homo sapiens = species: Homo sapiens; assay: Binding affinity to antisense i-hTERT DNA assessed as change in enthalpy at 400 uM by ITC analysis
HeLa = assay: Cytotoxicity against telomerase-positive human HeLa cells assessed as inhibition of cell growth incubated for 48 hrs by MTT assay; type: functional, cell-based
MDA-MB-231 [10] = assay: Induction of autophagy in human MDA-MB-231 cells assessed as engulfment of damaged mitochondria by lysosomes by measuring lysosome-mitochondria colocalization at 0 to 1.5 uM measured after 48 hrs by LysoTracker Blue DND-22/MitoTracker Deep Red FM staining based confocal microscopic analysis; type: functional, cell-based; settings: dose 0-1.5 µM
Quadruplex DNA [11] = assay: Binding affinity to CKIT-2 G4 DNA (unknown origin) assessed as change in gibbs free energy at 400 uM by ITC analysis; type: nucleic-acid assay
[12] = Upregulation of TGFB2 gene expression in human MDA-MB-231 cells assessed as fold change at 1 uM measured after 48 hrs by RNA-seq analysis relative to control; type: functional
MDA-MB-231 [13] = assay: Activation of apoptosis in human MDA-MB-231 cells assessed as downregulation of Bcl-2 protein expression measured after 48 hrs by Western blot analysis; type: functional, cell-based; settings: dose 0-1.5 µM
DNA [14] = assay: Binding affinity to Ds26 duplex DNA (unknown origin) assessed as change in enthalpy at 400 uM by ITC analysis; type: nucleic-acid assay
[15] = Toxicity in female Balb/c nude mouse xenografted with human MDA-MB-231 cells assessed as change in hemoglobin concentration at 2 to 5 mg/kg, iv administered via tail vein every 2 days for 16 days; type: organism-based; settings: in vivo, 384 h, dose 2-5 mg/kg, time 16 day
MDA-MB-231 [16] = assay: Inhibition of hTERT expression at transcriptional level in human MDA-MB-231 cells at 1 uM measured after 48 hrs by RNA-seq analysis; type: functional, cell-based
Quadruplex DNA [17] = assay: Binding affinity to Bcl-2 G4 DNA (unknown origin) assessed as change in gibbs free energy at 400 uM by ITC analysis; type: nucleic-acid assay
MDA-MB-231 [18] = assay: Downregulation of Artemis transcription level in human MDA-MB-231 cells at 1 uM measured after 48 hrs by RNA-seq analysis; type: functional, cell-based
MDA-MB-231 [19] = assay: Downregulation of c-MYC mRNA expression in human MDA-MB-231 cells at 0 to 1.5 uM measured after 48 hrs by qRT-PCR analysis; type: functional, cell-based; settings: dose 0-1.5 µM
Quadruplex DNA [20] = assay: Binding affinity to Telo21 G4 DNA (unknown origin) assessed as change in enthalpy at 400 uM by ITC analysis; type: nucleic-acid assay
MDA-MB-231 [21] = assay: Upregulation of glycolysis metabolic pathway in human MDA-MB-231 cells assessed as fold increase at 1.5 uM measured after 2 hrs by Seahorse XF24 analyzer relative to control; type: functional
[22] = Upregulation of S1PR1 gene expression in human MDA-MB-231 cells assessed as fold change at 1 uM measured after 48 hrs by RNA-seq analysis relative to control; type: functional
[23] = Upregulation of CCNB2 gene expression in human MDA-MB-231 cells assessed as fold change at 1 uM measured after 48 hrs by RNA-seq analysis relative to control; type: functional
[24] = Toxicity in female Balb/c nude mouse xenografted with human MDA-MB-231 cells assessed as pathological changes in kidney at 2 to 5 mg/kg, iv administered via tail vein every 2 days for 16 days by H and E staining based analysis; type: organism-based; settings: in vivo, 384 h, dose 2-5 mg/kg, time 16 day
MDA-MB-231 [25] = assay: Antitumor activity against human MDA-MB-231 cells xenografted in female Balb/c mouse assessed as inhibition of tumor cell proliferation at 5 mg/kg, iv administered via tail vein every 2 days for 16 days by Ki67 staining based assay; type: functional, organism-based; settings: time 16.0 day
MDA-MB-231 [26] = assay: Antitumor activity against human MDA-MB-231 cells xenografted in female Balb/c mouse assessed as reduction in tumor volume at 5 mg/kg, iv administered via tail vein every 2 days for 16 days relative to control; type: functional; design: scale not given: the % may be the effect or the level left; settings: time 16 day
[27] = Upregulation of RRAS gene expression in human MDA-MB-231 cells assessed as fold change at 1 uM measured after 48 hrs by RNA-seq analysis relative to control; type: functional
MDA-MB-231 [28] = assay: Induction of senescence in human MDA-MB-231 cells at 0 to 1.5 uM measured after 48 hrs by SA-beta-gal assay; type: functional, cell-based; settings: dose 0-1.5 µM
MDA-MB-231 [29] = assay: Disruption of energy metabolism in human MDA-MB-231 cells assessed as reduction in cellular energy production by measuring reduction in ATP production at 0 to 1.5 uM measured after 2 hrs by Seahorse XF24 analyzer; type: functional, cell-based; settings: dose 0-1.5 µM
Quadruplex DNA [30] = assay: Binding affinity to c-MYC Pu27 G4 DNA (unknown origin) assessed as dissociation constant by ITC analysis; type: nucleic-acid assay
Quadruplex DNA [31] = assay: Binding affinity to human TERT G4 DNA in Tris-HCl buffer at pH 7.4 assessed as fold increase in fluorescence signal at 5 uM by fluorescence spectrometer relative to control; type: nucleic-acid assay
[32] = Toxicity in female Balb/c nude mouse xenografted with human MDA-MB-231 cells assessed as signs of poor health at 2 to 5 mg/kg, iv administered via tail vein every 2 days for 16 days; type: organism-based; settings: in vivo, 384 h, dose 2-5 mg/kg, time 16 day
MDA-MB-231 [33] = assay: Downregulation of DNAPKcs transcription level in human MDA-MB-231 cells at 1 uM measured after 48 hrs by RNA-seq analysis; type: functional, cell-based
[34] = Upregulation of SKP2 gene expression in human MDA-MB-231 cells assessed as fold change at 1 uM measured after 48 hrs by RNA-seq analysis relative to control; type: functional

C[n+]1c(/C=C/c2c[nH]c3ccccc23)cc(/C=C2\Sc3ccccc3N2CCCN2CCC(C(F)(F)F)CC2)c2ccccc21.[I-]
Selectivity ratio [1]: 2
IC50 at 48 h [2]: 9.4 µM
Activity (DNA [3]): Active
fold change (FC) [4]: >2
Activity [5]: Non-Toxic
inhibition (MDA-MB-231 [6]): Active
Activity (MDA-MB-231 [7]): 48.7%
Activity (MDA-MB-231 [8]): Active
IC50 (MDA-MB-231 [9]): 0.67 µM
deltaH (Homo sapiens): -1.2 kcal/mol
IC50 (HeLa): 2.6 µM
Activity (MDA-MB-231 [10]): Active
deltaG (Quadruplex DNA [11]): -7.05 kcal/mol
fold change (FC) [12]: >2
Activity (MDA-MB-231 [13]): Dose-Dependent Effect
deltaH (DNA [14]): -1.32 kcal/mol
Activity [15]: Non-Toxic
inhibition (MDA-MB-231 [16]): Active
deltaG (Quadruplex DNA [17]): -7.43 kcal/mol
Activity (MDA-MB-231 [18]): Active
Activity (MDA-MB-231 [19]): inactive
deltaH (Quadruplex DNA [20]): -1.09 kcal/mol
fold change (FC) (MDA-MB-231 [21]): >0.8
fold change (FC) [22]: >2
fold change (FC) [23]: >2
Activity [24]: Non-Toxic
Activity (MDA-MB-231 [25]): Active
Activity (MDA-MB-231 [26]): 78.5%
fold change (FC) [27]: >2
Activity (MDA-MB-231 [28]): Active
Activity (MDA-MB-231 [29]): Active
Kd (Quadruplex DNA [30]): 14.7 µM
fold change (FC) (Quadruplex DNA [31]): 29
Activity [32]: Non-Toxic
Activity (MDA-MB-231 [33]): Active
fold change (FC) [34]: >2
